The values below come from patent publication US7317028B2, “Cell differentiation inducer” (Schering Aktiengesellschaft, priority 1996, dated 2008).

One series concerns A2780 cells. Kind of series: Test for induction of differentiation in A2780 cells (ALP activity, ALPmin). It counts as cell-based, human. As to conditions: Homo sapiens, 72 h; A2780 cells, 3 days incubation; minimum concentration of the drug inducing increase of ALP activity. The gist of the method: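 A2780 cells seeded at 15,000/well, test compound added in serial dilution the next day. ALP reaction stopped with 3N NaOH and absorbance read at 405 nm; ALPmin is the lowest concentration raising ALP activity.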

Take `Nc1ccccc1NC(=O)c1ccc(CNC(=O)OCc2ccc(-n3ccnc3)cc2)cc1` [Example 50, N-(2-aminophenyl)-4-[N-(4-(imidazol-1-yl)benzyl)oxycarbonylaminomethyl]benzamide]: the melting point was in the range of 195 to 198 °C. Moreover, in the series with A2780 cells, the minimal effective concentration was 1 µM.
`Nc1ccccc1NC(=O)c1ccc(CNC(=O)OCc2ccccn2)cc1` [Example 51, N-(2-aminophenyl)-4-[N-(pyridin-2-yl)methoxycarbonylaminomethyl]benzamide] returned a melting point of 166 to 167 °C. Also, the minimal effective concentration with A2780 cells is 1 µM.
For `Nc1ccccc1NC(=O)c1ccc(CNC(=O)OCCc2ccccn2)cc1` [Example 52, N-(2-aminophenyl)-4-[N-[2-(pyridin-2-yl)ethoxycarbonyl]aminomethyl]benzamide] the same measures were 146 to 148 °C and 1 µM.
`Cc1cccc(COC(=O)NCc2ccc(C(=O)Nc3ccccc3N)cc2)n1` [Example 53, N-(2-aminophenyl)-4-[N-(6-methylpyridin-2-yl)methoxycarbonylaminomethyl]benzamide] yielded a melting point of 138 °C. The minimal effective concentration in the series with A2780 cells came to 3 µM.
With `Nc1ccccc1NC(=O)c1ccc(CNC(=O)OCCc2cccnc2)cc1` [Example 54, N-(2-aminophenyl)-4-[N-[2-(pyridin-3-yl)ethoxycarbonyl]aminomethyl]benzamide], the melting point fell in the range of 120 to 125 °C. The minimal effective concentration in the series with A2780 cells amounted to 1 µM.
The molecule `Nc1ccccc1NC(=O)c1ccc(CNC(=O)OCCCc2cccnc2)cc1` [Example 55, N-(2-aminophenyl)-4-[N-[3-(pyridin-3-yl)propyloxycarbonyl]aminomethyl]benzamide] came in with a melting point of 121 to 124 °C. For the same molecule, the minimal effective concentration in the series with A2780 cells is 1 µM.
Regarding `Cc1ncccc1COC(=O)NCc1ccc(C(=O)Nc2ccccc2N)cc1` [Example 56, N-(2-aminophenyl)-4-[N-(2-methylpyridin-3-yl)methoxycarbonylaminomethyl]benzamide], the melting point fell in the range of 164 to 165 °C. The minimal effective concentration in the series on A2780 cells amounted to 3 µM.
Regarding `Cc1ccc(COC(=O)NCc2ccc(C(=O)Nc3ccccc3N)cc2)cn1` [Example 57, N-(2-aminophenyl)-4-[N-(6-methylpyridin-3-yl)methoxycarbonylaminomethyl]benzamide], the melting point was in the range of 164 to 165 °C. In the series with A2780 cells, this molecule yielded a minimal effective concentration of 3 µM.
The molecule `Nc1ccccc1NC(=O)c1ccc(CNC(=O)OCc2ccc(Cl)nc2)cc1` [Example 59, N-(2-aminophenyl)-4-[N-(6-chloropyridin-3-yl)methoxycarbonylaminomethyl]benzamide] gave a melting point of 180 to 185 °C. In the series with A2780 cells, this molecule registered a minimal effective concentration of 3 µM.
`Nc1ccccc1NC(=O)c1ccc(CNC(=O)OCc2ccncc2)cc1` [Example 60, N-(2-aminophenyl)-4-[N-(pyridin-4-yl)methoxycarbonylaminomethyl]benzamide] returned a melting point of 180 to 183 °C. Besides, the minimal effective concentration in the series on A2780 cells was 3 µM.
In the case of `Nc1ccccc1NC(=O)c1ccc(CNC(=O)OCc2cncs2)cc1` [Example 63, N-(2-aminophenyl)-4-[N-(thiazol-5-yl)methoxycarbonylaminomethyl]benzamide], the melting point fell in the range of 168 to 175 °C. For the same molecule, the minimal effective concentration with A2780 cells came out at 3 µM.
Molecule `CN1CCCC(COC(=O)NCc2ccc(C(=O)Nc3ccccc3N)cc2)C1` (stereo not drawn) [Example 65, N-(2-aminophenyl)-4-[N-(1-methylpiperidin-3-yl)methoxycarbonylaminomethyl]benzamide] came in with a melting point of 130 to 135 °C. In addition, in the series on A2780 cells, the minimal effective concentration was 3 µM.
For `Nc1ccccc1NC(=O)c1ccc(CNC(=O)Oc2ccccc2)cc1` [Example 68, N-(2-aminophenyl)-4-[N-(phenoxycarbonyl)aminomethyl]benzamide] the same measures were 174 to 175 °C and 3 µM.
As to `Nc1ccccc1COC(=O)NCc1ccc(C(=O)Nc2ccccc2N)cc1` [Example 71, N-(2-aminophenyl)-4-[N-(2-aminophenyl)methoxycarbonylaminomethyl]benzamide], the melting point was 149 to 151 °C (dec.). The molecule also displayed a minimal effective concentration with A2780 cells of 10 µM.
With `Nc1cccc(COC(=O)NCc2ccc(C(=O)Nc3ccccc3N)cc2)c1` [Example 73, N-(2-aminophenyl)-4-[N-(3-aminophenyl)methoxycarbonylaminomethyl]benzamide], the melting point is 149 to 153 °C (dec.). The minimal effective concentration in the series on A2780 cells stood at 3 µM.
As for `Cn1cncc1COC(=O)NCc1ccc(C(=O)Nc2ccccc2N)cc1` [Example 74, N-(2-aminophenyl)-4-[N-(1-methylimidazol-5-yl)methoxycarbonylaminomethyl]benzamide], the melting point is 162 to 165 °C (dec.). The molecule also showed a minimal effective concentration in the series with A2780 cells of 10 µM.
Regarding `COc1cncc(COC(=O)NCc2ccc(C(=O)Nc3ccccc3N)cc2)c1` [Example 76, N-(2-aminophenyl)-4-[N-(5-methoxypyridin-3-yl)methoxycarbonylaminomethyl]benzamide], the melting point is 169 to 170 °C. Besides, in the series on A2780 cells, the minimal effective concentration came out at 1 µM.
For `Nc1ccccc1NC(=O)c1ccc(CNC(=O)OCc2cnccn2)cc1` [Example 77, N-(2-aminophenyl)-4-[N-(pyrazin-2-yl)methoxycarbonylaminomethyl]benzamide] the same measures were 182 °C and 3 µM.
Molecule `COc1ccc(O)c(NC(=O)c2ccc(CNC(=O)OCc3cccnc3)cc2)c1` [Example 85, N-(2-hydroxy-5-methoxyphenyl)-4-[N-(pyridin-3-yl)methoxycarbonylaminomethyl]benzamide] came in with a melting point of 175 to 176 °C. This molecule returned a minimal effective concentration with A2780 cells of 3 µM.
On to `Nc1ccccc1NC(=O)c1ccc(CNC(=S)OCc2cccnc2)cc1` [Example 88, N-(2-aminophenyl)-4-[N-(pyridin-3-yl)methoxythiocarbonylaminomethyl]benzamide], for which the melting point is 154 to 156 °C (dec.). The same molecule registered a minimal effective concentration with A2780 cells of 0.1 µM.
The molecule `Nc1ccccc1NC(=O)c1ccc(CCC(=O)NCc2cccnc2)cc1` [Example 97, N-(2-aminophenyl)-4-[2-[N-(3-picolyl)aminocarbonyl]ethyl]benzamide] came in with a melting point of 168 to 170 °C. The molecule further gave a minimal effective concentration with A2780 cells of 0.1 µM.
Molecule `Nc1ccccc1NC(=O)c1ccc(COC(=O)NCc2cccnc2)cc1` [Example 98, N-(2-aminophenyl)-4-[(pyridin-3-yl)methylaminocarbonyloxymethyl]benzamide] had a melting point of 139 to 141 °C. For the same molecule, in the series with A2780 cells, the minimal effective concentration turned out to be 0.1 µM.
On to `Nc1ccccc1NC(=O)c1ccc(NC(=O)Cc2ccccc2)cc1` [Example 100, N-(2-aminophenyl)-4-(phenylacetylamino)benzamide], for which the melting point is 232 to 237 °C. This molecule gave a minimal effective concentration in the series with A2780 cells of 1 µM.
`Nc1ccccc1NC(=O)c1ccc(NC(=O)Cc2ccc([N+](=O)[O-])cc2)cc1` [Example 104, N-(2-aminophenyl)-4-[(4-nitrophenylacetyl)amino]benzamide] displayed a melting point of 222 to 226 °C. In addition, in the series with A2780 cells, the minimal effective concentration came to 1 µM.
Take `Nc1ccccc1CC(=O)Nc1ccc(C(=O)Nc2ccccc2N)cc1` [Example 105, N-(2-aminophenyl)-4-[(2-aminophenylacetyl)amino]benzamide]: the melting point was 177 to 182 °C (dec.). Besides, the minimal effective concentration with A2780 cells was determined as 1 µM.
Take `Nc1ccc(CC(=O)Nc2ccc(C(=O)Nc3ccccc3N)cc2)cc1` [Example 106, N-(2-aminophenyl)-4-[(4-aminophenylacetyl)amino]benzamide]: the melting point is 219 to 226 °C (dec.). In addition, in the series with A2780 cells, the minimal effective concentration amounted to 1 µM.
For the molecule `CN(C)c1ccc(CC(=O)Nc2ccc(C(=O)Nc3ccccc3N)cc2)cc1` [Example 108, N-(2-aminophenyl)-4-[[4-(N,N-dimethylamino)phenylacetyl]amino]benzamide], the melting point is 140 °C. This molecule yielded a minimal effective concentration in the series with A2780 cells of 3 µM.
Regarding `Cl.Cl.Nc1ccccc1NC(=O)c1ccc(NC(=O)Cc2cccnc2)cc1` [Example 111, N-(2-aminophenyl)-4-[(pyridin-3-yl)acetylamino]benzamide dihydrochloride], the melting point is 182 to 189 °C (dec.). Further, the minimal effective concentration in the series on A2780 cells is 3 µM.
For the molecule `Nc1ccccc1NC(=O)c1ccc(NC(=O)CCc2cccnc2)cc1` [Example 112, N-(2-aminophenyl)-4-[[3-(pyridin-3-yl)propanoyl]amino]benzamide], the melting point was 184 to 186 °C. This molecule displayed a minimal effective concentration in the series on A2780 cells of 0.1 µM.
The matching figures for `Nc1ccccc1NC(=O)c1ccc(NC(=O)CN(Cc2cccnc2)C(=O)C(F)(F)F)cc1` [Example 114, N-(2-aminophenyl)-4-[[N-(pyridin-3-yl)methyl-N-trifluoroacetylamino]acetylamino]benzamide]: 145 °C (dec.) and 3 µM.
`Nc1ccccc1NC(=O)c1ccc(NC(=O)CNCc2cccnc2)cc1` [Example 115, N-(2-aminophenyl)-4-[[N-(pyridin-3-yl)methylamino]acetylamino]benzamide]: the melting point was 160 °C (dec.). The minimal effective concentration in the series on A2780 cells came out at 0.01 µM.
`CN(CC(=O)Nc1ccc(C(=O)Nc2ccccc2N)cc1)Cc1cccnc1` [Example 119, N-(2-aminophenyl)-4-[[N-(pyridin-3-yl)methyl-N-methylamino]acetylamino]benzamide]: the melting point lay within 154 to 155 °C. For the same molecule, the minimal effective concentration with A2780 cells is 3 µM.
`Nc1ccccc1NC(=O)c1ccc(NC(=O)COc2cccnc2)cc1` [Example 120, N-(2-aminophenyl)-4-[N-(pyridin-3-yl)oxyacetylamino]benzamide] came in with a melting point of 175 to 179 °C. Also, the minimal effective concentration with A2780 cells was found to be 0.3 µM.
